Values quoted from earlier work in patent publication US5500226A, “Pharmaceutical composition having analgesic activity” (Zambon Group S.p.A., priority 1993, dated 1996).

Settings: in words; vs Ibuprofen

CC(C)Cc1ccc([C@H](C)C(=O)O)cc1 [(S)-Ibuprofen, S(+)-2-(4-isobutylphenyl)propionic acid]
Analgesic effect: more rapid, and consequently a more lasting, analgesic effect than Ibuprofen
